From PubChem BioAssay (NCI)
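At the GI50, growth is halved. TGI: concentration producing complete growth inhibition.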

What was measured:
Assay in all cases: NCI anticancer screen, dose series, 384-well format
SW-620 colon = tested on: SW-620 colon
786-0 renal = tested on: 786-0 renal
HL-60(TB) leukemia = tested on: HL-60(TB) leukemia
SR leukemia = tested on: SR leukemia
MDA-MB-468 breast = tested on: MDA-MB-468 breast
M14 melanoma = tested on: M14 melanoma
SF-295 CNS = tested on: SF-295 CNS
IGROV1 ovarian = tested on: IGROV1 ovarian
SF-268 CNS = tested on: SF-268 CNS
OVCAR-4 ovarian = tested on: OVCAR-4 ovarian
UACC-62 melanoma = tested on: UACC-62 melanoma
LOX IMVI melanoma = tested on: LOX IMVI melanoma
MCF7 breast = tested on: MCF7 breast
OVCAR-5 ovarian = tested on: OVCAR-5 ovarian
SK-MEL-28 melanoma = tested on: SK-MEL-28 melanoma
CCRF-CEM leukemia = tested on: CCRF-CEM leukemia
MDA-MB-231 breast = tested on: MDA-MB-231 breast
SNB-19 CNS = tested on: SNB-19 CNS
COLO 205 colon = tested on: COLO 205 colon
RXF 393 renal = tested on: RXF 393 renal
HCT-15 colon = tested on: HCT-15 colon
MALME-3M melanoma = tested on: MALME-3M melanoma
NCI-H23 lung = tested on: NCI-H23 lung
HCC-2998 colon = tested on: HCC-2998 colon
HOP-62 NSCLC = tested on: HOP-62 NSCLC
SK-MEL-2 melanoma = tested on: SK-MEL-2 melanoma
HOP-92 NSCLC = tested on: HOP-92 NSCLC
U251 glioblastoma = tested on: U251 glioblastoma
ACHN renal = tested on: ACHN renal

In the case of `C=C(F)C(=O)N1CCN(c2nc(OC[C@@H]3CCCN3C)nc3c2CCN(c2cccc4cccc(Cl)c24)C3)C[C@@H]1CC#N`, the GI50 (SW-620 colon) was 1120 nM, the TGI (SW-620 colon) was 2350 nM and the GI50 (786-0 renal) was 509 nM. For the same compound, the TGI (786-0 renal) was 1780 nM, the GI50 (HL-60(TB) leukemia) was 637 nM and the TGI (HL-60(TB) leukemia) was 1820 nM. It also gave a GI50 (SR leukemia) of 134 nM, a TGI (SR leukemia) of 512 nM and a GI50 (MDA-MB-468 breast) of 275 nM. The TGI (MDA-MB-468 breast) was 1110 nM, the GI50 (M14 melanoma) was 692 nM and the TGI (M14 melanoma) was 1920 nM. The GI50 (SF-295 CNS) was 1480 nM, the TGI (SF-295 CNS) was 2810 nM and the GI50 (IGROV1 ovarian) was 1290 nM. It also gave a TGI (IGROV1 ovarian) of 2610 nM, a GI50 (SF-268 CNS) of 542 nM and a TGI (SF-268 CNS) of 1660 nM. The GI50 (OVCAR-4 ovarian) was 853 nM, the TGI (OVCAR-4 ovarian) was 2120 nM and the GI50 (UACC-62 melanoma) was 692 nM. It also gave a TGI (UACC-62 melanoma) of 1910 nM, a GI50 (LOX IMVI melanoma) of 1100 nM and a TGI (LOX IMVI melanoma) of 2310 nM. The GI50 (MCF7 breast) was 1190 nM, the TGI (MCF7 breast) was 2430 nM and the GI50 (OVCAR-5 ovarian) was 386 nM. For the same compound, the TGI (OVCAR-5 ovarian) was 1190 nM, the GI50 (SK-MEL-28 melanoma) was 1130 nM and the TGI (SK-MEL-28 melanoma) was 2360 nM. For the same compound, the GI50 (CCRF-CEM leukemia) was 351 nM, the TGI (CCRF-CEM leukemia) was 1340 nM and the GI50 (MDA-MB-231 breast) was 417 nM. For the same compound, the TGI (MDA-MB-231 breast) was 1420 nM, the GI50 (SNB-19 CNS) was 745 nM and the TGI (SNB-19 CNS) was 1960 nM. For the same compound, the GI50 (COLO 205 colon) was 564 nM, the TGI (COLO 205 colon) was 1740 nM and the GI50 (RXF 393 renal) was 379 nM. It also gave a TGI (RXF 393 renal) of 1560 nM, a GI50 (HCT-15 colon) of 568 nM and a TGI (HCT-15 colon) of 1710 nM. For the same compound, the GI50 (MALME-3M melanoma) was 1330 nM, the TGI (MALME-3M melanoma) was 2610 nM and the GI50 (NCI-H23 lung) was < 10 nM. The GI50 (HCC-2998 colon) was 1080 nM, the TGI (HCC-2998 colon) was 2280 nM and the GI50 (HOP-62 NSCLC) was < 10 nM. The TGI (HOP-62 NSCLC) was 1390 nM, the GI50 (SK-MEL-2 melanoma) was 484 nM and the TGI (SK-MEL-2 melanoma) was 1630 nM. It also gave a GI50 (HOP-92 NSCLC) of 341 nM, a TGI (HOP-92 NSCLC) of 931 nM and a GI50 (U251 glioblastoma) of 285 nM. For the same compound, the TGI (U251 glioblastoma) was 994 nM and the GI50 (ACHN renal) was 992 nM.
